According to ChEMBL document CHEMBL6096628, “Discovery of a Highly Potent and Selective BRD9 PROTAC Degrader Based on E3 Binder Investigation for the Treatment of Hematological Tumors” (J Med Chem, 2024):
Calls of active or inactive are those of the source. The rule behind the calls is not given here.

What was measured:
[1] = Cmax in ICR mouse at 20 mg/kg, IG administered via gavage and measured after 24 hrs by LC-MS analysis; format: ADME, organism-based; conditions: in vivo, po
[2] = Cytotoxicity against PBMC cells (unknown origin) assessed as inhibition of cell growth at 5000 nM incubated for 7 days by MTS reagent based assay; format: toxicity; conditions: 168 h, 5 µM, time 7 day
[3] = target: T1, Protein cereblon/Bromodomain-containing protein 9 (Homo sapiens, UniProt Q9H8M2+Q96SW2); assay: PROTAC activity at CRBN/BRD9 in human MV4-11 cells assessed as induction of BRD9 degradation at 1 nM by Western blot analysis relative to control; format: cell-based
[4] = target: T1, Protein cereblon/Bromodomain-containing protein 9; assay: PROTAC activity at CRBN/BRD9 in human MV4-11 cells assessed as induction of BRD9 degradation at 10 nM by Western blot analysis relative to control; format: cell-based
[5] = target: T1, Protein cereblon/Bromodomain-containing protein 9; assay: PROTAC activity at CRBN/BRD9 in human MV4-11 cells assessed as induction of BRD9 degradation at 100 nM by Western blot analysis relative to control; format: cell-based
[6] = target: T1, Protein cereblon/Bromodomain-containing protein 9; assay: PROTAC activity at CRBN/BRD9 in human MV4-11 cells assessed as induction of BRD9 degradation at 0.33 nM measured after 4 hrs by Western blot analysis relative to control; format: cell-based
[7] = target: T1, Protein cereblon/Bromodomain-containing protein 9; assay: PROTAC activity at CRBN/BRD9 in human MV4-11 cells assessed as induction of BRD9 degradation at 0.33 nM in presence of pomalidomide by Western blot analysis; format: cell-based
MV4-11 [8] = assay: Induction of GSPT1 degradation in human MV4-11 cells at 0.1 to 100 nM by Western blotting analysis; format: cell-based; conditions: dose 0.1-100 nM
MV4-11 [9] = assay: Induction of IKZF1 degradation in human MV4-11 cells at 1 to 100 nM by Western blot analysis; format: cell-based; conditions: dose 1-100 nM
MV4-11 [10] = assay: Induction of BRD4 degradation in human MV4-11 cells at 100 nM by Western blot analysis; format: cell-based
MV4-11 [11] = assay: Induction of BRD7 degradation in human MV4-11 cells at 100 nM by Western blot analysis; format: cell-based
MV4-11 [12] = assay: Downregulation of BRD9 protein expression in human MV4-11 cells by proteomic analysis; format: functional, cell-based
MV4-11 [13] = assay: Downregulation of CHEK2 protein expression in human MV4-11 cells by proteomic analysis; format: functional, cell-based
MV4-11 [14] = assay: Downregulation of KHDC4 protein expression in human MV4-11 cells by proteomic analysis; format: functional, cell-based
MV4-11 [15] = assay: Cell cycle arrest in human MV4-11 cells assessed as accumulation of cells at G1 phase at 0.01 to 10 nM incubated for 24 hrs by PI staining based flow cytometric analysis; format: functional; conditions: dose 0.01-10 nM
MV4-11 [16] = assay: Induction of apoptosis in human MV4-11 cells assessed as viable cells at 0.1 nM incubated for 48 hrs by Annexin V-FITC/PI staining based flow cytometric analysis (reference value: 94.80 %); format: functional; conditions: read-out: Activity
MV4-11 [17] = assay: Induction of apoptosis in human MV4-11 cells assessed as early apoptotic cells at 0.1 nM incubated for 48 hrs by Annexin V-FITC/PI staining based flow cytometric analysis (reference value: 4.22 %); format: functional
MV4-11 [18] = assay: Induction of apoptosis in human MV4-11 cells assessed as late apoptotic cells at 0.1 nM incubated for 48 hrs by Annexin V-FITC/PI staining based flow cytometric analysis (reference value: 0.91 %); format: functional
MV4-11 [19] = assay: Induction of apoptosis in human MV4-11 cells assessed as necrotic cells at 0.1 nM incubated for 48 hrs by Annexin V-FITC/PI staining based flow cytometric analysis (reference value: 0.07 %); format: functional
MV4-11 [20] = assay: Induction of apoptosis in human MV4-11 cells assessed as viable cells at 1 nM incubated for 48 hrs by Annexin V-FITC/PI staining based flow cytometric analysis (reference value: 94.80 %); format: functional; conditions: read-out: Activity
MV4-11 [21] = assay: Induction of apoptosis in human MV4-11 cells assessed as late apoptotic cells at 1 nM incubated for 48 hrs by Annexin V-FITC/PI staining based flow cytometric analysis (reference value: 0.91 %); format: functional
MV4-11 [22] = assay: Induction of apoptosis in human MV4-11 cells assessed as necrotic cells at 1 nM incubated for 48 hrs by Annexin V-FITC/PI staining based flow cytometric analysis (reference value: 0.07 %); format: functional
MV4-11 [23] = assay: Induction of apoptosis in human MV4-11 cells assessed as viable cells at 10 nM incubated for 48 hrs by Annexin V-FITC/PI staining based flow cytometric analysis (reference value: 94.80 %); format: functional; conditions: read-out: Activity
MV4-11 [24] = assay: Induction of apoptosis in human MV4-11 cells assessed as necrotic cells at 10 nM incubated for 48 hrs by Annexin V-FITC/PI staining based flow cytometric analysis (reference value: 0.07 %); format: functional
OCI-Ly10 [25] = assay: Antiproliferative activity against human OCI-Ly10 cells assessed as inhibition of cell growth incubated for 7 days by MTS reagent based assay; format: functional; conditions: OCI-Ly10, 168 h
U-937 = assay: Antiproliferative activity against human U-937 cells assessed as inhibition of cell growth incubated for 7 days by MTS reagent based assay; format: functional; conditions: U-937, 168 h
[26] = AUC (0 to t) in ICR mouse at 20 mg/kg, IG administered via gavage and measured after 24 hrs by LC-MS analysis; format: ADME, organism-based; conditions: in vivo, po
[27] = Toxicity in Balb/c nude mouse xenografted with human MV4-11 cells assessed as weight loss at 20 mg/kg, ip administered once a day for 20 days; format: organism-based; conditions: in vivo, 480 h, time 20 day
[28] = Toxicity in Balb/c nude mouse xenografted with human MV4-11 cells assessed as behavioral abnormalities at 20 mg/kg, ip administered once a day for 20 days; format: organism-based; conditions: in vivo, 480 h, time 20 day
MV4-11 [29] = assay: Antitumor activity against human MV4-11 cells xenografted in Balb/c nude mouse assessed as tumor volume at 20 mg/kg, ip administered once daily for 20 days (reference value: 1187 +/- 449 mm^3); format: functional; conditions: time 20 day
Mus musculus [30] = assay: Upregulation of C-myc expression in Balb/c nude mouse tumor xenografted with human MV4-11 cells at 20 mg/kg, ip administered once daily for 20 days by Western blot analysis; format: functional, organism-based; conditions: time 20.0 day
Mus musculus [31] = assay: Upregulation of BRD4 expression in Balb/c nude mouse tumor xenografted with human MV4-11 cells at 20 mg/kg, ip administered once daily for 20 days by Western blot analysis; format: functional, organism-based; conditions: time 20.0 day
Mus musculus [32] = assay: Upregulation of BRD7 expression in Balb/c nude mouse tumor xenografted with human MV4-11 cells at 20 mg/kg, ip administered once daily for 20 days by Western blot analysis; format: functional, organism-based; conditions: time 20.0 day
[33] = Toxicity in Balb/c nude mouse xenografted with human OCI-Ly10 cells assessed as mortality at 30 mg/kg, po administered once daily for 18 days; format: organism-based; conditions: in vivo, 432 h, time 18 day
OCI-Ly10 [34] = assay: Antitumor activity against human OCI-Ly10 cells xenografted in Balb/c nude mouse assessed as tumor volume at 30 mg/kg, po administered once daily for 18 days (reference value: 561 +/- 370 mm^3); format: functional; conditions: time 18 day
MV4-11 [35] = assay: Upregulation of C-myc expression level in human MV4-11 cells at 0.1 to 10 nM measured after 24 to 48 hrs by Western blot analysis; format: functional, cell-based; conditions: dose 0.1-10 nM, time 24-48 hrs

T1 sequence (Q96SW2 whole entry, looked up): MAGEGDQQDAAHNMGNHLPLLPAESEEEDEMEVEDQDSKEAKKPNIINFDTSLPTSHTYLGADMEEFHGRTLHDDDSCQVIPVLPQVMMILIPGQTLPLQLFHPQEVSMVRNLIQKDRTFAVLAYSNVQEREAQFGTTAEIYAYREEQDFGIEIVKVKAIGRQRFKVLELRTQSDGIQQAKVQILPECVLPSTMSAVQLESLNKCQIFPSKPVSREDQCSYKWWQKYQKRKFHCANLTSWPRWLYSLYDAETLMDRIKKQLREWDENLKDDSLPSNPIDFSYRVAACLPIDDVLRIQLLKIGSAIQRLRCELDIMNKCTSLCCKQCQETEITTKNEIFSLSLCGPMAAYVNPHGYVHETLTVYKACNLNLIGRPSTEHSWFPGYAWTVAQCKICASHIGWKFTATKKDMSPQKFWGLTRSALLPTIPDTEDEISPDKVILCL
T1 sequence (Q9H8M2 whole entry, looked up): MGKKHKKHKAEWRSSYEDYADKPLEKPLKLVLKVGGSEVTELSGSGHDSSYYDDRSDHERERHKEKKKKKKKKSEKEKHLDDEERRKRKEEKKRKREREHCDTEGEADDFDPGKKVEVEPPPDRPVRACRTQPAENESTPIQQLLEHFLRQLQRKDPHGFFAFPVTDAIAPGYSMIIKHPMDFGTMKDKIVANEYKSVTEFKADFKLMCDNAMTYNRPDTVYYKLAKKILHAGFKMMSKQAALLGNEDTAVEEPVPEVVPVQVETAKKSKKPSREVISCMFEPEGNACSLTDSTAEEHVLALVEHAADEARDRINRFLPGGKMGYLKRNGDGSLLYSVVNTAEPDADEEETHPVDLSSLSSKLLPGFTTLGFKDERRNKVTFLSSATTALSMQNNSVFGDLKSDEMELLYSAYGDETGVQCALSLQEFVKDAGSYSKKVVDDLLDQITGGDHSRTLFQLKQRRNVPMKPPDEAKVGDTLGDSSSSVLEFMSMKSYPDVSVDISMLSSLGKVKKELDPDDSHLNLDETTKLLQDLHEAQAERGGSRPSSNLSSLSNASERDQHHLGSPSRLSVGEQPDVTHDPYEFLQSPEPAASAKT

Q: Which Cmax [1] does the source give for `COc1cc(-c2cn(C)c(=O)c3ccccc23)cc(OC)c1CN1CCC(CN2CCC(c3ccc4c5c(cccc35)C(=O)N4C3CCC(=O)NC3=O)CC2)CC1` (stereo unspecified) here?
A: The Cmax was 127 ng/mL.

Q: What about the Activity [2] of the same compound?
A: The Activity was “Toxic”.

Q: And the Activity [3]?
A: Its Activity is 92.5%.

Q: And the Activity [4]?
A: Its Activity is 98.5%.

Q: And the Activity [5]?
A: The Activity was 95%.

Q: And the Activity [6]?
A: The Activity was 92%.

Q: What about the Activity [7] of the same compound?
A: The Activity was “inactive”.

Q: And the Activity (MV4-11 [8])?
A: The Activity was “inactive”.

Q: What about the Activity (MV4-11 [9]) of the same compound?
A: Its Activity is “Active; Moderate Degradation Observed”.

Q: What about the Activity (MV4-11 [10]) of the same compound?
A: The Activity was “inactive”.

Q: What about the Activity (MV4-11 [11]) of the same compound?
A: The Activity was “inactive”.

Q: And the Activity (MV4-11 [12])?
A: The Activity was “Active”.

Q: What about the Activity (MV4-11 [13]) of the same compound?
A: The Activity was “Active”.

Q: And the Activity (MV4-11 [14])?
A: Its Activity is “Active”.

Q: What about the Activity (MV4-11 [15]) of the same compound?
A: Its Activity is “Active”.

Q: And the viability at 0.0001 µM (MV4-11 [16])?
A: Its viability at 0.0001 µM is 87.4%.

Q: And the Activity (MV4-11 [17])?
A: The Activity was 9.2%.

Q: What about the Activity (MV4-11 [18]) of the same compound?
A: Its Activity is 3.37%.

Q: And the Activity (MV4-11 [19])?
A: Its Activity is 0.03%.

Q: And the viability at 0.001 µM (MV4-11 [20])?
A: The viability at 0.001 µM was 80.4%.

Q: And the Activity (MV4-11 [21])?
A: Its Activity is 5.74%.

Q: What about the Activity (MV4-11 [22]) of the same compound?
A: The Activity was 0.06%.

Q: What about the viability at 0.01 µM (MV4-11 [23]) of the same compound?
A: Its viability at 0.01 µM is 74.8%.

Q: And the Activity (MV4-11 [24])?
A: The Activity was 0.21%.

Q: And the IC50 (OCI-Ly10 [25])?
A: The IC50 was 1.04 nM.

Q: And the IC50 (U-937)?
A: Its IC50 is 1060 nM.

Q: What about the AUC(0-t) at 24 h [26] of the same compound?
A: The AUC(0-t) at 24 h was 1300 ng·h/mL.

Q: What about the Activity [27] of the same compound?
A: The Activity was “Non-toxic”.

Q: And the Activity [28]?
A: The Activity was “Non-toxic”.

Q: What about the Activity (MV4-11 [29]) of the same compound?
A: Its Activity is 766 mm3.

Q: And the Activity (Mus musculus [30])?
A: The Activity was “Active”.

Q: And the Activity (Mus musculus [31])?
A: The Activity was “Active”.

Q: What about the Activity (Mus musculus [32]) of the same compound?
A: Its Activity is “Active”.

Q: What about the Activity [33] of the same compound?
A: The Activity was “Non-toxic”.

Q: What about the Activity (OCI-Ly10 [34]) of the same compound?
A: Its Activity is 309 mm3.

Q: What about the Activity (MV4-11 [35]) of the same compound?
A: Its Activity is “Active”.
